Values of other authors as cited in patent US20190374461A1, “Treatment apparatus and mechanisms for an infected nail” (priority 2018, published 2019).
Where “and” joins values, the source holds several entries; their conditions need not be identical. Equal entries are not always repeated. Structures can show the parent of a compound that is named as a salt. Where two headings read alike, the source gives them in different places.

System: nail infections

In the case of `C[C@@H](n1cnc2cc(Cl)ccc2c1=O)[C@](O)(Cn1cncn1)c1ccc(F)cc1F` [Albaconazole], the “side effects compared with Lamisil” value (in vivo, po) is given as “prone to fewer side effects than Lamisil”.

For `CCC(C)(C)c1ccc(CC(C)CN2C[C@@H](C)O[C@@H](C)C2)cc1` (some centres unmarked) [Amorolfine, amorolfine], the cure rates (topical, mild nail infections without nail matrix involvement) is listed as 40 to 55% and the “effectiveness against severe nail infections” value (topical, severe nail infections involving the nail bed) is listed as “not effective”.

For `Cc1cc(C2CCCCC2)n(O)c(=O)c1` [Ciclopirox, ciclopirox], the cure rate (topical, 8% strength) is given as “about 8.5%”.

For `CN(C/C=C/C#CC(C)(C)C)Cc1cccc2ccccc12` [Lamisil, terbinafine hydrochloride], the mycological cure rate (oral treatment of nail infections) is listed as 46%.

In the case of `CC[C@@H]([C@H](C)O)n1ncn(-c2ccc(N3CCN(c4ccc(OC[C@@H]5CO[C@@](Cn6cncn6)(c6ccc(F)cc6F)C5)cc4)CC3)cc2)c1=O` [Posaconazole], the “side effects compared with Lamisil” value (oral treatment) is given as “prone to fewer side effects than Lamisil”.

For `OB1OCc2cc(F)ccc21` [Tavaborole, tavaborole], the “complete cure, share of patients” value (topical, 600 patients in the study) is given as 6%.

In the case of `C=C1CCN([C@H](C)[C@](O)(Cn2cncn2)c2ccc(F)cc2F)CC1` [efinaconazole], the cure rates (topical, only mild infections not involving the nail bed) is given as 17.8% and 15.2%.
